Structures are written as SMILES.

Alpha-glucosidase MAL12, sequence (P53341 whole entry): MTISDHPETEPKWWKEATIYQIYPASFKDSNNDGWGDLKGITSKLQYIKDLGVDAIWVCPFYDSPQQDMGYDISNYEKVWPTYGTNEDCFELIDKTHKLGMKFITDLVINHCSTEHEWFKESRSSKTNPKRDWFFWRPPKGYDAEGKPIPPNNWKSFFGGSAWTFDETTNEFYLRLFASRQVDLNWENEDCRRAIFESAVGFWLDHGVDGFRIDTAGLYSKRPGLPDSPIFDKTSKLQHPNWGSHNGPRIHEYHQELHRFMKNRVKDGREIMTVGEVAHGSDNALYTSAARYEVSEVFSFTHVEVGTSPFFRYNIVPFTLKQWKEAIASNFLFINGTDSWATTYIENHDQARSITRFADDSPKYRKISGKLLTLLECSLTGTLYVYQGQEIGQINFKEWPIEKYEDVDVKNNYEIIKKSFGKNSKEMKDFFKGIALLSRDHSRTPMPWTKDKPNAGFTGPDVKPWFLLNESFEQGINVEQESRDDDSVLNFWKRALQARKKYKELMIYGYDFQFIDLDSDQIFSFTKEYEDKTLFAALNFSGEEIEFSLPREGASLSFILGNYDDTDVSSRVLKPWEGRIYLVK

The test has as its target Alpha-glucosidase MAL12 (Saccharomyces cerevisiae (strain ATCC 204508 / S288c), UniProt P53341). Put plainly: α-glucosidase Inhibitory Activity Assay. To be noted: pH 7; 25 °C. The protocol: α-glucosidase (25 μL, 0.2 U/mL), 25 μL of various concentrations of samples, and 175 μL of 50 mM sodium phosphate buffer (pH 7.0) were mixed at room temperaturefor 10 min. The reaction was started by the addition of 25 μL of 2.5 mM p-nitrophenyl-α-d-glucopyranoside. […] Control sample contained 25 μL DMSO in place of test samples.
What is called IC50 is the concentration that inhibits the measured activity by half. Low readings indicate greater potency, high ones weaker potency. In the case of `COc1ccc(C(=O)O)cc1OC` [3,4-dimethoxybenzoic acid], the IC50 is above 300 µM.
Under `O=C(O)c1ccc(O)cc1` [4-Hydroxybenzoate, III] stands above 300 µM.
The figure for `COc1cc(C(=O)O)ccc1O` [4-hydroxy-3-methoxybenzoic acid] is above 300 µM; for `COc1ccc(C(=O)OC[C@H]2OC3c4c(cc(O)c(OC)c4O)C(=O)OC3[C@@H](O)[C@@H]2O)cc1OC` (stereo not given in full) [11-O-(3',4'-dimethoxybenzoyl)-bergenin (6)] it is 24.6 µM; for `COc1cc(OC)cc(C(=O)OC[C@H]2OC3c4c(cc(O)c(OC)c4O)C(=O)OC3[C@@H](O)[C@@H]2O)c1` (stereo not given in full) [11-O-(3',5'-dimethoxybenzoyl)-bergenin (8)] it is above 300 µM.
Regarding `COc1c(O)cc2c(c1O)C1O[C@H](COC(=O)c3ccccc3)[C@@H](O)[C@H](O)C1OC2=O` (stereo not given in full) [11-O-benzoylbergenin (2)], the IC50 amounted to 118 µM.
Under `COc1c(O)cc2c(c1O)C1O[C@H](COC(=O)c3ccc(O)cc3)[C@@H](O)[C@H](O)C1OC2=O` (stereo not given in full) [11-O-p-hydroxybenzoylbergenin (3)] stands 143 µM.
Under `COc1ccc(C(=O)OC[C@H]2OC3c4c(cc(O)c(OC)c4O)C(=O)OC3[C@@H](O)[C@@H]2O)cc1` (stereo not given in full) [11-O-p-methoxybenzoylbergenin (4)] stands 144 µM; under `COc1c(O)cc2c(c1O)C1O[C@H](COC(=O)c3ccc(O)c(O)c3)[C@@H](O)[C@H](O)C1OC2=O` (stereo not given in full) [11-O-protocatechuoylbergenin (5)], 290 µM.
The figure for `COc1cc(C(=O)OC[C@H]2OC3c4c(cc(O)c(OC)c4O)C(=O)OC3[C@@H](O)[C@@H]2O)cc(OC)c1O` (stereo not given in full) [11-O-syringylbergenin (9)] is above 300 µM.
Molecule `COc1cc(C(=O)OC[C@H]2OC3c4c(cc(O)c(OC)c4O)C(=O)OC3[C@@H](O)[C@@H]2O)ccc1O` (stereo not given in full) [11-O-vanilloylbergenin (7)] showed an IC50 of 187 µM.
The figure for `COc1ccc(C(=O)O)cc1` [Anisic acid] is above 300 µM; for `COc1c(O)cc2c(c1O)C1O[C@H](CO)[C@@H](O)[C@H](O)C1OC2=O` (stereo not given in full) [Bergenin (1)] it is above 300 µM; for `O=C(O)c1ccc(O)c(O)c1` [Protocatechuic acid (M1)] it is above 300 µM.
The figure for `O=C(O)c1ccccc1` [SAMPL4, O1] is above 300 µM.

(Values after BindingDB's records for doi:10.3109/14756366.2012.719503 (Kinki University, 2013).)
